Consider 4 molecules from article PMC10332405 (European journal of medicinal chemistry, 2023).

Molecules are shown by their SMILES.

Test [1] relates to human T-cell lymphotropic virus type 1 (HTLV-1) protease. To be noted: cited from earlier work.
Test [2] concerns the target HIV-1 protease I84V (Human immunodeficiency virus type 1 group M subtype B, UniProt P12497, I572V/Q495K). Description: biochemical.
In test [3] the target is HIV-1 protease I50V/A71V (Human immunodeficiency virus type 1 group M subtype B, UniProt P12497, A559V/I538V/Q495K). Description: biochemical.
Test [4] concerns HIV-1-SLK. Description: Antiviral assay with resistant HIV-1 variant SLK. The class given is cell-based. To be noted: read-out: Antiviral EC50, HIV-1-SLK; multi-PI resistant recombinant virus.

On to `CCOP(=O)(COc1ccc(C[C@H](NC(=O)O[C@H]2CO[C@H]3OCC[C@H]32)[C@H](O)CN(CC(CC)CC)S(=O)(=O)c2ccc(N)cc2)cc1)OCC` [PU6, (3R,3aS,6aR)-Hexahydrofuro[2,3-b]furan-3-yl ((2S,3R)-4-((4-amino-N-(2-ethylbutyl)phenyl)sulfonamido)-1-(4-((diethoxyphosphoryl)methoxy)phenyl)-3-hydroxybutan-2-yl)carbamate], for which the “Inhibition of HTLV-1 protease” value in test [1] was “potent inhibitor”.

For `CCOP(=O)(COc1ccc(C[C@H](NC(=O)O[C@H]2CO[C@H]3OCC[C@H]32)[C@H](O)CN(CC(C)C)S(=O)(=O)c2ccc(OC)cc2)cc1)OCC` [GS-8374], the Ki in test [2] and in test [3] was < 0.005 nM in each case. For the molecule `CCOP(=O)(COc1ccc(C[C@H](NC(=O)O[C@H]2CO[C@H]3OCC[C@H]32)[C@H](O)CN(CC(CC)CC)S(=O)(=O)c2ccc3c(c2)OCO3)cc1)OCC` [PU9, (3R,3aS,6aR)-Hexahydrofuro[2,3-b]furan-3-yl ((2S,3R)-1-(4-((diethoxyphosphoryl)methoxy)phenyl)-4-(N-(2-ethylbutyl)benzo[d][1,3]dioxole-5-sulfonamido)-3-hydroxybutan-2-yl)carbamate], the EC50 in test [4] is < 10 nM. On to `CCOP(=O)(COc1ccc(C[C@H](NC(=O)O[C@H]2CO[C@H]3OCC[C@H]32)[C@H](O)CN(CC(CC)CC)S(=O)(=O)c2ccc(OC)cc2)cc1)OCC` [PU7, (3R,3aS,6aR)-Hexahydrofuro[2,3-b]furan-3-yl ((2S,3R)-1-(4-((diethoxyphosphoryl)methoxy)phenyl)-4-((N-(2-ethylbutyl)-4-methoxyphenyl)sulfonamido)-3-hydroxybutan-2-yl)carbamate], for which, in test [4], the concentration for a half-maximal effect (EC50) was < 10 nM.
